Source: patent US20030181333A1, “Herbicide combinations comprising specific sulfonylureas” (Bayer CropScience GmbH, priority 2002, published 2003)

Key:
Assay type in all cases: in vivo
Details in all cases: applied at 3-5 leaf stage, scored visually approx. 4-6 weeks after application, means of 2-3 repetitions, g of AS/ha: (A1 + B2)^S 12.5 + 6.25; Azur 800 + 40 + 200; B2 5; E) 60
Winter wheat = test: Outdoor trial: compatibility, % damage to crop
Protocol: (§1) Herbicidal action and compatibility in outdoor trials
(§2) The plants were sown and cultivated (fertilization, irrigation, etc.) as customary in practice on trial fields with naturally occurring weeds.
(§3) The experiments were designed as random tests of 2 plots of 5-10 m^2, with 2-3 repetitions. Application was carried out using plot sprayers at the 3-5 leaf stage. The test substances were made up in 100-600 liters of water/ha and applied with a pressure of 3 bar.
(§4) After the treatment (approx. 4-6 weeks after application), the herbidical activity of the active compounds or active compound mixtures was scored visually by comparing the treated plants with the untreated controls. The damage and development of all above-ground parts of the plants was recorded. Scoring was done on a percentage scale (100% action=all plants dead; 50% action=50% of the plants and green plant parts dead; 0% action=no discernible action or damage to crop species.
(§5) In the tables below, the results are given as the means of 2-3 repetitions, and the activity achieved when active compounds (A+B) and C) were applied independently is stated in brackets.

Avena fatua = test: Outdoor trial: herbicidal action, visual score
Protocol: as §1, §2, §3, §4, §5

Galium aparine = test: Outdoor trial: herbicidal action, visual score
Protocol: as §1, §2, §3, §4, §5

Structure (SMILES)	Winter wheat % Damage (Winter wheat) [%]	% Activity Avena fatua (Avena fatua)	% Activity Galium aparine (Galium aparine)
COC(=O)c1ccc(I)cc1S(=O)(=O)[N-]C(=O)Nc1nc(C)nc(OC)n1.[Na+] [B2, iodosulfuron-methyl-sodium]	0	68%	25%
CCOC(=O)[C@@H](C)Oc1ccc(Oc2nc3ccc(Cl)cc3o2)cc1 [E), fenoxaprop-(P)-ethyl]	–	70) %	0) %
